Columns and labels:
[1] = target: T1, Homeodomain-interacting protein kinase 2 (Homo sapiens, UniProt Q9H2X6); assay: Inhibition of HIPK2 (unknown origin) by selectscreen kinase assay
[2] = target: T2, Dual specificity tyrosine-phosphorylation-regulated kinase 1B (Homo sapiens, UniProt Q9Y463); assay: Inhibition of DYRK1B (unknown origin) by NanoBRET cellular target engagement assay
[3] = target: Mitogen-activated protein kinase kinase kinase 11 (Homo sapiens, UniProt Q16584); assay: Inhibition of MLK3 (unknown origin) by NanoBRET cellular target engagement assay
[4] = target: T3, Dual specificity tyrosine-phosphorylation-regulated kinase 2 (Homo sapiens, UniProt Q92630); assay: Inhibition of DYRK2 (unknown origin) by NanoBRET cellular target engagement assay
T3 sequence (Q92630 whole entry): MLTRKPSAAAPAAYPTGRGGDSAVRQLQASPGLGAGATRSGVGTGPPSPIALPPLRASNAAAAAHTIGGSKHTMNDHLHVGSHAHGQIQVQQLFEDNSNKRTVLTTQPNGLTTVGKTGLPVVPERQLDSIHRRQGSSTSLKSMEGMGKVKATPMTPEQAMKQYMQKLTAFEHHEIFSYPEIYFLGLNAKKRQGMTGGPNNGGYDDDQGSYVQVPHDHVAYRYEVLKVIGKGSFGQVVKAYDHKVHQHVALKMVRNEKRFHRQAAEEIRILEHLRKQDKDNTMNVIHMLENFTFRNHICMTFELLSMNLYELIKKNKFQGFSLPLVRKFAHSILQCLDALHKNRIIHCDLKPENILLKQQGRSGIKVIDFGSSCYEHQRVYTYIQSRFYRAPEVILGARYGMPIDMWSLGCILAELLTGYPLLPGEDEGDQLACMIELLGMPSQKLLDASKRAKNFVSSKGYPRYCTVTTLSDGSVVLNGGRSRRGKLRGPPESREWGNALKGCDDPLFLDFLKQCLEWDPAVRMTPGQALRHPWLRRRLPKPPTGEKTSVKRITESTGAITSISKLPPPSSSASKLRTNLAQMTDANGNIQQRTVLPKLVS

[5] = target: T4, Dual specificity protein kinase CLK1 (Homo sapiens, UniProt P49759); assay: Inhibition of human recombinant CLK1 using ERMRPRKRQGSVR substrate by radiometric scintillation assay
T4 sequence (P49759 whole entry): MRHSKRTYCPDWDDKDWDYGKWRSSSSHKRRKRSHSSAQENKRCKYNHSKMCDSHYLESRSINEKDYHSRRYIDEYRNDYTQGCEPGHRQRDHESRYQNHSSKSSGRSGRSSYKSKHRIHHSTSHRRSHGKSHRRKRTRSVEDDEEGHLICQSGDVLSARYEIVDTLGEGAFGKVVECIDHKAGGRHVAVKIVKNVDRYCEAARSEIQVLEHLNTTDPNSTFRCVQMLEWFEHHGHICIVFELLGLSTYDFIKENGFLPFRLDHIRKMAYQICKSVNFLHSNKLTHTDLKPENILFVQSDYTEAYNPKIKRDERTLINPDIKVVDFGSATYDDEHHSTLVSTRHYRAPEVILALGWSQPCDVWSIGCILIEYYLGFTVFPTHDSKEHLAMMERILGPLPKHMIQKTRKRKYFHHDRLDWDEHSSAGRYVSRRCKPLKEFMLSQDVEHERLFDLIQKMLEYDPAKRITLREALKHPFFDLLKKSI

[6] = target: T5, Dual specificity protein kinase CLK2 (Homo sapiens, UniProt P49760); assay: Inhibition of CLK2 (unknown origin) by NanoBRET cellular target engagement assay
T5 sequence (P49760 whole entry): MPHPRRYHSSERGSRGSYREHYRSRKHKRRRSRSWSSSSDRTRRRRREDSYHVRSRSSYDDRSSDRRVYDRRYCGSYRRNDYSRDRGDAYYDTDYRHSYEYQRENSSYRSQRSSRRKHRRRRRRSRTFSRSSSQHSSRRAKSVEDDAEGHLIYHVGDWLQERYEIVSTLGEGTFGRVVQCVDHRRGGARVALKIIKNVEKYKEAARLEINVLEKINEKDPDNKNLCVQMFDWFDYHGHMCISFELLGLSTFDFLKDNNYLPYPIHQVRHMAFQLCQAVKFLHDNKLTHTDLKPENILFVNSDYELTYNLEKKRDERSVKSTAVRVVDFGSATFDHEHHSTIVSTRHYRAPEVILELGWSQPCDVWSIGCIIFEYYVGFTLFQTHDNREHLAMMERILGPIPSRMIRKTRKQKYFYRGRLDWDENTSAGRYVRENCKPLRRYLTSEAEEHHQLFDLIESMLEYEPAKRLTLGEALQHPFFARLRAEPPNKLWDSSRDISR

[7] = target: T6, Dual specificity protein kinase CLK4 (Homo sapiens, UniProt Q9HAZ1); assay: Inhibition of human recombinant CLK4 using YRRAAVPPSPSLS substrate by radiometric scintillation assay
T6 sequence (Q9HAZ1 whole entry): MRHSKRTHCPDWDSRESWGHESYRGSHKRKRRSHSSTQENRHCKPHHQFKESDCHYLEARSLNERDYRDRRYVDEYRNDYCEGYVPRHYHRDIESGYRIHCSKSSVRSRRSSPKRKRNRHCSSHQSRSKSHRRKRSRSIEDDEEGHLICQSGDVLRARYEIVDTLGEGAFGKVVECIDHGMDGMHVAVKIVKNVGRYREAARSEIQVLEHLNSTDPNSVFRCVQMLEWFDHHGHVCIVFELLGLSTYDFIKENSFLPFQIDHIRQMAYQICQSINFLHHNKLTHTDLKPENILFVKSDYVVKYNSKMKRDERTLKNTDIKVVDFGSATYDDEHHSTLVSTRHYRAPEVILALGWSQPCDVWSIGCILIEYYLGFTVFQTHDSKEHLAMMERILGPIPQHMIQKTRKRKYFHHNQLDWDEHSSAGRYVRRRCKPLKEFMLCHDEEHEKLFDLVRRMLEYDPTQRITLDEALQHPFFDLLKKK

[8] = target: Mitogen-activated protein kinase kinase kinase 9 (Homo sapiens, UniProt P80192); assay: Inhibition of MLK1 (unknown origin) by NanoBRET cellular target engagement assay
[9] = target: T7, Homeodomain-interacting protein kinase 3 (Homo sapiens, UniProt Q9H422); assay: Inhibition of human recombinant HIPK3 using myelin substrate by radiometric scintillation assay
T7 sequence (Q9H422 whole entry): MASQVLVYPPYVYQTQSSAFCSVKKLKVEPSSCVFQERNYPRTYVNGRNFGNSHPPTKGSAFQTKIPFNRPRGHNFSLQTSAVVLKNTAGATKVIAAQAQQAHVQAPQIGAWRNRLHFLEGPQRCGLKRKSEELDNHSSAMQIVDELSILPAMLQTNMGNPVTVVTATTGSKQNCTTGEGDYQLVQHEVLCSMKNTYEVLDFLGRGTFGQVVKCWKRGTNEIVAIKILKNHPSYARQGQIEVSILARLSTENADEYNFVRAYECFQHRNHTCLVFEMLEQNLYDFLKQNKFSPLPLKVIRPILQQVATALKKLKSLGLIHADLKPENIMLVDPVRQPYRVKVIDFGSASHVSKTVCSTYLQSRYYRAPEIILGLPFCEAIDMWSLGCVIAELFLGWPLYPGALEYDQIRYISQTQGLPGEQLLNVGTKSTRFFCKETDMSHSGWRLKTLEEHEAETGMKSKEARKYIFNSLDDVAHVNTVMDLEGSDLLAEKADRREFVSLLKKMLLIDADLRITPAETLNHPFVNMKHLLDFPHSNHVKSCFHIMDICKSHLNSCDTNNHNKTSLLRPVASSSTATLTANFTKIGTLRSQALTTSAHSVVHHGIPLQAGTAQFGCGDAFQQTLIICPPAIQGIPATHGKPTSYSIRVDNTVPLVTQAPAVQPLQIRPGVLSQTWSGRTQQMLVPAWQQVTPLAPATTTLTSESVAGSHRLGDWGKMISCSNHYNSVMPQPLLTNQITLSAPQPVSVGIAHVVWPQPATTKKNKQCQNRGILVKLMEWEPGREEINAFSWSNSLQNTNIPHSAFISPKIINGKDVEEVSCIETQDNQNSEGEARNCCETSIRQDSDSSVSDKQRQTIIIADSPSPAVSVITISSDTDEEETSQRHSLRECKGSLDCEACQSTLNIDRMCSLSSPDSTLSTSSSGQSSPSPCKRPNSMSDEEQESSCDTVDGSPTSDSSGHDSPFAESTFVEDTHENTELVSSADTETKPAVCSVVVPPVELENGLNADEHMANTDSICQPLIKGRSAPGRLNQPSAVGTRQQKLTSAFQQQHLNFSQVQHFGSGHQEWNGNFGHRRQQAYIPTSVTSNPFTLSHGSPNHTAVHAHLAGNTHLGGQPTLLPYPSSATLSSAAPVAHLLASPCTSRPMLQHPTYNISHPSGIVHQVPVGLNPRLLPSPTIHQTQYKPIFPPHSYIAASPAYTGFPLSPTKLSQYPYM

[10] = target: T8, Homeodomain-interacting protein kinase 1 (Homo sapiens, UniProt Q86Z02); assay: Inhibition of human recombinant HIPK1 using myelin substrate by radiometric scintillation assay
T8 sequence (Q86Z02 whole entry): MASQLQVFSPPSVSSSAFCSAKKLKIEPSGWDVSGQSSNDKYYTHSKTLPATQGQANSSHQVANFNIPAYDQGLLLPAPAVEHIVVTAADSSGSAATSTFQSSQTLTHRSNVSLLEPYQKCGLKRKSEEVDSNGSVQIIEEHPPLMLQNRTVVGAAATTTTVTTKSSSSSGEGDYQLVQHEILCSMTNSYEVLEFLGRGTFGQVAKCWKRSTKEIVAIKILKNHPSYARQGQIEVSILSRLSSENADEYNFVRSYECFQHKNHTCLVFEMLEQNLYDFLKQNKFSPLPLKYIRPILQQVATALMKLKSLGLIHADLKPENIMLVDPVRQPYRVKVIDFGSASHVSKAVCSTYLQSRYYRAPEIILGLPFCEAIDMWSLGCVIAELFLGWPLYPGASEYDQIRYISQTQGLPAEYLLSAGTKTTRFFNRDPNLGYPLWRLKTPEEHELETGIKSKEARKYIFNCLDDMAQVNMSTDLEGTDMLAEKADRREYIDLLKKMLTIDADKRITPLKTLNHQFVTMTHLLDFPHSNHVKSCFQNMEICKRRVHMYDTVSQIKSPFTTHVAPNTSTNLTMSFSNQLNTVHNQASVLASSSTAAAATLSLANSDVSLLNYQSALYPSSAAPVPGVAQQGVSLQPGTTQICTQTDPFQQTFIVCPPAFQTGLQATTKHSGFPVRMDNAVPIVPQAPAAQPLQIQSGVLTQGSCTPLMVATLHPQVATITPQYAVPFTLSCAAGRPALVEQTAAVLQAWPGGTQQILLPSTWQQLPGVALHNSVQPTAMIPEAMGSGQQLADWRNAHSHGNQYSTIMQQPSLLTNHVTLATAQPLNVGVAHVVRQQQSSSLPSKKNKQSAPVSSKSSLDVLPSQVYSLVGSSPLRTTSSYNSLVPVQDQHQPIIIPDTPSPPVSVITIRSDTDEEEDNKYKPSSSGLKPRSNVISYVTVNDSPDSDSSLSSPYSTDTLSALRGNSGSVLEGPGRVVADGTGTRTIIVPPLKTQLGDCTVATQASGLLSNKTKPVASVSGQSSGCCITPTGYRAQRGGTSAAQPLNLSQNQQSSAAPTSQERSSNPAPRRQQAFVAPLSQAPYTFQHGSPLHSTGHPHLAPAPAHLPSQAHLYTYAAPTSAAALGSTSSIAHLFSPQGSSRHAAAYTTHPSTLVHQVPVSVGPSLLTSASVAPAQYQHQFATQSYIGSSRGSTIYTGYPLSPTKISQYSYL

[11] = target: T9, Dual specificity protein kinase CLK3 (Homo sapiens, UniProt P49761); assay: Inhibition of human full length recombinant CLK3 using ERMRPRKRQGSVR substrate by radiometric scintillation assay
T9 sequence (P49761 whole entry): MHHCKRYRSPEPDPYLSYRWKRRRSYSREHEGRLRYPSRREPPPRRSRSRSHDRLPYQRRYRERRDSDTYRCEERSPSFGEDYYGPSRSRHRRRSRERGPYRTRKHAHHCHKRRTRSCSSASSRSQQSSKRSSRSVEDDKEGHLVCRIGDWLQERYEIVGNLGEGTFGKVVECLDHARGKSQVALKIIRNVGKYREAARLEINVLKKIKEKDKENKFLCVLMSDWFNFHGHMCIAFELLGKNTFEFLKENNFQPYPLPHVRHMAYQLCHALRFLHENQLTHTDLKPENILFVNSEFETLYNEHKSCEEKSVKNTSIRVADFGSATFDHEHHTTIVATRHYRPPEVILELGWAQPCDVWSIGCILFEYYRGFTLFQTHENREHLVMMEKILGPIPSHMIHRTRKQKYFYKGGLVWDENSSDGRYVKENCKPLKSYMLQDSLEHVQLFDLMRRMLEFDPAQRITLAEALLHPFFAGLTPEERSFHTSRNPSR

[12] = target: T9, Dual specificity protein kinase CLK3; assay: Inhibition of CLK3 (unknown origin) by NanoBRET cellular target engagement assay
[13] = target: Mitogen-activated protein kinase kinase kinase 10 (Homo sapiens, UniProt Q02779); assay: Inhibition of MLK2 (unknown origin) by NanoBRET cellular target engagement assay
[14] = target: T5, Dual specificity protein kinase CLK2; assay: Inhibition of human recombinant CLK2 using YRRAAVPPSPSLSR substrate by radiometric scintillation assay
[15] = target: T1, Homeodomain-interacting protein kinase 2; assay: Inhibition of human recombinant HIPK2 using myelin substrate by radiometric scintillation assay
[16] = target: T2, Dual specificity tyrosine-phosphorylation-regulated kinase 1B; assay: Inhibition of human full length recombinant DYRK1B using RRRFRPASPLRGPP substrate by radiometric scintillation assay
[17] = target: T10, Dual specificity tyrosine-phosphorylation-regulated kinase 1A (Homo sapiens, UniProt Q13627); assay: Inhibition of DYRK1A (unknown origin) by NanoBRET cellular target engagement assay
[18] = target: T10, Dual specificity tyrosine-phosphorylation-regulated kinase 1A; assay: Inhibition of human full length recombinant DYRK1A using RRRFRPASPLRGPP substrate by radiometric scintillation assay
[19] = target: T3, Dual specificity tyrosine-phosphorylation-regulated kinase 2; assay: Inhibition of human full length recombinant DYRK2 using casein substrate by radiometric scintillation assay
[20] = target: T6, Dual specificity protein kinase CLK4; assay: Inhibition of CLK4 (unknown origin) by NanoBRET cellular target engagement assay
[21] = target: Cyclin-dependent kinase-like 3 (Homo sapiens, UniProt Q8IVW4); assay: Inhibition of CDKL3 (unknown origin) by NanoBRET cellular target engagement assay
[22] = target: T4, Dual specificity protein kinase CLK1; assay: Inhibition of CLK1 (unknown origin) by NanoBRET cellular target engagement assay
[23] = target: T7, Homeodomain-interacting protein kinase 3; assay: Inhibition of HIPK3 (unknown origin)
[24] = target: T1, Homeodomain-interacting protein kinase 2; assay: Inhibition of HIPK2 (unknown origin)
[25] = target: T11, Homeodomain-interacting protein kinase 4 (Homo sapiens, UniProt Q8NE63); assay: Inhibition of HIPK4 (unknown origin)
T11 sequence (Q8NE63 whole entry): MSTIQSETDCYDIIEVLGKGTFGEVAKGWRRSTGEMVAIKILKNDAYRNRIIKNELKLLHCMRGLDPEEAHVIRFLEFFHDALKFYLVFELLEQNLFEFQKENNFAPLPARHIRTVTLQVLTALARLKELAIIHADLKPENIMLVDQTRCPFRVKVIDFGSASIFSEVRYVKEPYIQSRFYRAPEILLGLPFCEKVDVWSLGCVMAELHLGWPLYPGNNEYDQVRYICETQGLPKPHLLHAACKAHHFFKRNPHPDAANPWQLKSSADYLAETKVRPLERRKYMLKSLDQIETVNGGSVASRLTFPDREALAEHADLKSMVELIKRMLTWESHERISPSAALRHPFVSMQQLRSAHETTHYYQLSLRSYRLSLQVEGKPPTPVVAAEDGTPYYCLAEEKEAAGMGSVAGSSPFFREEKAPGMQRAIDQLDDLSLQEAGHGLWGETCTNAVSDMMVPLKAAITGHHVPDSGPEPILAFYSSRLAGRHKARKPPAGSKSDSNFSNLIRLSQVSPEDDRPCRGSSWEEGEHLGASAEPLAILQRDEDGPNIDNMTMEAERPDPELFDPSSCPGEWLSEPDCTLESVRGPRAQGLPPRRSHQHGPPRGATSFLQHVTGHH

[26] = target: T8, Homeodomain-interacting protein kinase 1; assay: Inhibition of HIPK1 (unknown origin)

T2 sequence (Q9Y463 whole entry): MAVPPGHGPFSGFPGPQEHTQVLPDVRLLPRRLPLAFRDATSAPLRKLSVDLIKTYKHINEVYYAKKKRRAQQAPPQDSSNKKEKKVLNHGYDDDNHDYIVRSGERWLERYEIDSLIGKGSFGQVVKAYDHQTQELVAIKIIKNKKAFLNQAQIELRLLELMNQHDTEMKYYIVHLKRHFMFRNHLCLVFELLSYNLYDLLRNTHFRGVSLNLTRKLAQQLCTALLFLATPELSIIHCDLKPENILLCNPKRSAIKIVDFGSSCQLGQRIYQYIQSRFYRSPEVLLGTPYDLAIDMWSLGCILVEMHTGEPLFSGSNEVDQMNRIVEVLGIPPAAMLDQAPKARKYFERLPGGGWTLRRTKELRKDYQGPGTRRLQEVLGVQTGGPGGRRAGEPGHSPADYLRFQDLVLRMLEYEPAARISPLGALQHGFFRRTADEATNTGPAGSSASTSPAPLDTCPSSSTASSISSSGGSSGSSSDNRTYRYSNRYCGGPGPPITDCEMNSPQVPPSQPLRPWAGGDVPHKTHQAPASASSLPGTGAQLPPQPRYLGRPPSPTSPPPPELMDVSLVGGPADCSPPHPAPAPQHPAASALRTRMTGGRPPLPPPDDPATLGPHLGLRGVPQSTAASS

Question: Which IC50 [1] does the source give for `O=C1NC(=O)/C(=C\c2c[nH]c(=O)c(-c3ccc(N4CCNCC4)nc3)c2)S1` here?
Answer: The IC50 was 0.074 µM.

Question: How did the IC50 [2] turn out when `CC(C)(C)c1ccc(-c2coc3ccc(-c4cn[nH]c4)nc23)cc1` was run?
Answer: The IC50 was over 50 µM.

Question: What about the IC50 [3] of the same compound?
Answer: Its IC50 is over 50 µM.

Question: And the IC50 [4]?
Answer: The IC50 was over 50 µM.

Question: What about the IC50 [5] of the same compound?
Answer: Its IC50 is 0.946 µM.

Question: What about the IC50 [6] of the same compound?
Answer: The IC50 was 18 µM.

Question: What about the IC50 [7] of the same compound?
Answer: The IC50 was 1.47 µM.

Question: What about the IC50 [8] of the same compound?
Answer: The IC50 was over 50 µM.

Question: And the IC50 [9]?
Answer: Its IC50 is 0.476 µM.

Question: What about the IC50 [10] of the same compound?
Answer: Its IC50 is 0.248 µM.

Question: And the IC50 [11]?
Answer: Its IC50 is over 3 µM.

Question: And the IC50 [12]?
Answer: Its IC50 is 43 µM.

Question: And the IC50 [13]?
Answer: The IC50 was over 50 µM.

Question: What about the IC50 [14] of the same compound?
Answer: The IC50 was 1.43 µM.

Question: And the IC50 [15]?
Answer: Its IC50 is 0.119 µM.

Question: And the IC50 [16]?
Answer: The IC50 was over 3 µM.

Question: And the IC50 [17]?
Answer: The IC50 was 43 µM.

Question: And the IC50 [18]?
Answer: The IC50 was over 3 µM.

Question: And the IC50 [19]?
Answer: Its IC50 is over 3 µM.

Question: And the IC50 [20]?
Answer: The IC50 was 46 µM.

Question: And the IC50 [21]?
Answer: Its IC50 is over 50 µM.

Question: What about the IC50 [22] of the same compound?
Answer: Its IC50 is over 50 µM.

Question: Which IC50 [2] does the source give for `CC(C)(C)c1ccc(-c2coc3ccc(-c4cn[nH]n4)nc23)cc1` here?
Answer: The IC50 was over 50 µM.

Question: And the IC50 [3]?
Answer: The IC50 was over 50 µM.

Question: What about the IC50 [4] of the same compound?
Answer: Its IC50 is over 50 µM.

Question: What about the IC50 [5] of the same compound?
Answer: The IC50 was over 3 µM.

Question: What about the IC50 [6] of the same compound?
Answer: Its IC50 is over 50 µM.

Question: What about the IC50 [7] of the same compound?
Answer: The IC50 was over 3 µM.

Question: What about the IC50 [8] of the same compound?
Answer: The IC50 was 15 µM.

Question: What about the IC50 [9] of the same compound?
Answer: Its IC50 is 0.283 µM.

Question: And the IC50 [10]?
Answer: The IC50 was 0.285 µM.

Question: And the IC50 [11]?
Answer: Its IC50 is over 3 µM.

Question: And the IC50 [12]?
Answer: The IC50 was over 50 µM.

Question: And the IC50 [13]?
Answer: The IC50 was over 50 µM.

Question: And the IC50 [14]?
Answer: The IC50 was over 3 µM.

Question: And the IC50 [15]?
Answer: Its IC50 is 0.123 µM.

Question: And the IC50 [16]?
Answer: The IC50 was over 3 µM.

Question: And the IC50 [17]?
Answer: Its IC50 is over 50 µM.

Question: And the IC50 [18]?
Answer: Its IC50 is over 3 µM.

Question: And the IC50 [19]?
Answer: The IC50 was over 3 µM.

Question: And the IC50 [20]?
Answer: The IC50 was 40 µM.

Question: What about the IC50 [21] of the same compound?
Answer: The IC50 was over 50 µM.

Question: And the IC50 [22]?
Answer: Its IC50 is over 50 µM.

Question: For `COc1cc2c(Oc3ccc(NC(=O)C4(C(=O)Nc5ccc(F)cc5)CC4)cc3F)ccnc2cc1OCCCN1CCOCC1` [FORETINIB], which IC50 [23] is on record?
Answer: The IC50 was 0.1 µM.

Question: And the IC50 [24]?
Answer: The IC50 was 0.1 µM.

Question: How did the IC50 [23] turn out when `Cc1[nH]c(/C=C2\C(=O)Nc3ccc(S(=O)(=O)Cc4c(Cl)cccc4Cl)cc32)c(C)c1C(=O)N1CCC[C@@H]1CN1CCCC1` [PHA-665752] was run?
Answer: The IC50 was 0.1 µM.

Question: What about the IC50 [25] of the same compound?
Answer: Its IC50 is 0.1 µM.

Question: And the IC50 [26]?
Answer: Its IC50 is 0.1 µM.
